The experiment concerns the target E1-E2-DNA complex (Human papillomavirus 11, UniProt P04015). The experiment in a line: E2-dependent E1 DNA binding assay (E1-E2 DNA assay). As to conditions: E1-E2 DNA assay of Example 11, HPV-11. As to the method: This particular assay determines the ability of a test compound to inhibit the activity (IC50) of HPV-11 DNA replication. More specifically, in the assay described herein, the inhibitory activity of the test compound is evaluated based on its ability to interfere with the E1-E2-DNA origin of replication interaction, thereby inhibiting initiation of viral DNA replication.
This assay was modeled on a similar assay for SV40 T Antigen described by McKay (J. Mol. Biol., 1981,145:471). A 400bp radiolabeled DNA probe, containing the -HPV-11 origin of replication (Chiang et al.., 1992, Proc. Natl.-Acad. Sci. USA 89:5799) was produced by pcr, using plasmid pBluescript™ SK encoding the origin (nucleotides 7886-61 of the HPV-11 genome in unique BAMH1 site) as template and primers flanking the origin. Radiolabel was incorporated as [33p]dCTP. Binding assay buffer consisted of: 20 mM Tris pH 7.6, 100 mM NaCI, 1 mM DTT, 1 mM EDTA.
Other reagents used were protein A-SPA beads (type II, Amersham) and K72 rabbit polyclonal antiserum, raised against a peptide corresponding to the C-terminal 14 amino acids of HPV-11 E1. Following the protocol from Amersham, one bottle of beads was mixed with 25 mL of binding assay buffer. For the assay, a saturating amount of K72 antiserum was added to the beads and the mixture was incubated for 1 h, washed with one volume of binding assay buffer, and then resuspended in the same volume of fresh binding assay buffer. Binding reactions contained 8 ng of E2, approximately 100-200 ng of purified E1, and 0.4 ng of radiolabeled probe in a total of 80 µL of binding assay buffer. After 1 h at room temperature, 25 µL of K72 antibody-SPA bead suspension was added to with the binding reaction and mixed. After an additional hour of incubation at room temperature, the reactions were centrifuged briefly to pellet the beads and the extent of complex formation was determined by scintillation counting on a Packard TopCount™. Typically, the signal for reactions containing E1 and E2 was 20-30 fold higher than the background observed when either E1, E2, or both was omitted.

Sequence of E1-E2-DNA complex (P04015 whole entry, one chain of several): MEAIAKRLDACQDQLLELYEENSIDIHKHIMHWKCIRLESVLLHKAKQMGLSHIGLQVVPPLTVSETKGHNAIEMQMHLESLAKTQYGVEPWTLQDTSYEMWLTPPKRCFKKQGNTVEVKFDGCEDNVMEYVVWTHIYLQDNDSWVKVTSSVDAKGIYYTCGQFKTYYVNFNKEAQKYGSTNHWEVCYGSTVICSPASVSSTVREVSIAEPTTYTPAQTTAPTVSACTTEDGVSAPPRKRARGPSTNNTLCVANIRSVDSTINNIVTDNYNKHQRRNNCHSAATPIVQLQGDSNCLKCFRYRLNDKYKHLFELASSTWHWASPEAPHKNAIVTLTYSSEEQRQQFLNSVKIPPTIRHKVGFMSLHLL

The IC50 is the concentration at which inhibition is half-maximal. For the compound `CSc1ccc(NC(=O)C2C(c3ccc(F)c(F)c3)OC3(C(=O)c4ccccc4C3=O)C2C(=O)O)cc1` (stereo not shown) [Compound 1073], the 50% inhibitory concentration (IC50) lay in the range of 5 to 50 µM.
As to `CCc1ccc(NC(=O)C2C(c3ccc(Cl)c(Cl)c3)OC3(C(=O)c4ccccc4C3=O)C2C(=O)O)cc1` (stereo not shown) [Compound 1055], the IC50 was 0.5 to 5 µM.
Consider `O=C(NCCc1ccccc1)C1C(c2ccc(Cl)c(Cl)c2)OC2(C(=O)c3ccccc3C2=O)C1C(=O)O` (racemic) [Compound 1077], for which the IC50 was less than 0.5 µM.
As for `CC(=O)c1ccc(NC(=O)C2C(c3ccc(C(F)(F)F)c(F)c3)OC3(C(=O)c4ccccc4C3=O)C2C(=O)O)cc1` (stereo not shown) [Compound 1067], the figure is 5 to 50 µM; as for `COC(=O)C1C(C(=O)Nc2ccc3c(c2)OCO3)C(c2ccc(Cl)cc2)OC12C(=O)c1ccccc1C2=O` (stereo not shown) [Compound 1017], 5 to 50 µM.
For `N#Cc1cccc(C2OC3(C(=O)c4ccccc4C3=O)C(C(=O)O)C2C(=O)Nc2ccc3c(c2)OCO3)c1` (stereo not shown) [Compound 1080] the value was 5 to 50 µM; for `O=C(NC1Cc2ccccc2C1)C1C(c2ccc(Cl)c(Cl)c2)OC2(C(=O)c3ccccc3C2=O)C1C(=O)O` (stereo not shown) [Compound 1098], 0.5 to 5 µM.
For `Cc1cccc(C2OC3(C(=O)c4ccccc4C3=O)C3C(=O)N(c4ccc5c(c4)OCO5)C(=O)C23)c1` (stereo not shown) [Compound 2014] the value was 5 to 50 µM.
In turn, `Cc1ccc2c(c1)C1(O)OC(=O)C3C(C(=O)NCCc4ccccc4Cl)C(c4ccc(Br)c(Br)c4)OC31C2=O` (single isomer, unassigned) [Compound B1005] displayed a half-inhibitory concentration (IC50) of 5 to 50 µM.
In turn, `O=C(CNCc1ccc(N2C(=O)C3C(c4ccc(Cl)c(Cl)c4)OC4(C(=O)c5ccccc5C4=O)C3C2=O)cc1)NCCNc1cccc2c(S(=O)(=O)O)cccc12` (stereo not shown) [Compound 2022] showed an IC50 of 5 to 50 µM.
For the compound `CN(CCN(C)c1ccc([N+](=O)[O-])c2nonc12)C(=O)CNCc1ccc(NC(=O)C2C(c3ccc(Cl)c(Cl)c3)OC3(C(=O)c4ccccc4C3=O)C2C(=O)O)cc1` (stereo not shown) [Compound 1140], the IC50 was 0.5 to 5 µM.
`O=C(Nc1ccc(Cl)cc1)C1C(c2ccc(F)c(F)c2)OC2(C(=O)c3ccccc3C2=O)C1C(=O)O` (stereo not shown) [Compound 1062]: the IC50 fell in the range of 5 to 50 µM.
Regarding `O=C(NCCc1ccccc1Cl)C1C(c2ccc(Cl)c(Cl)c2)OC2(C(=O)c3ccccc3C2=O)C1C(=O)O` (stereo not shown) [Compound 1135], the 50% inhibitory concentration (IC50) was less than 0.5 µM.
`O=C(Nc1ccc(-c2csnn2)cc1)C1C(c2ccc(F)c(F)c2)OC2(C(=O)c3ccccc3C2=O)C1C(=O)O` (stereo not shown) [Compound 1083] yielded an IC50 of 0.5 to 5 µM.
In turn, `O=C(Nc1ccc(NC(=O)C2C(c3ccc(Cl)c(Cl)c3)OC3(C(=O)c4ccccc4C3=O)C2C(=O)O)cc1)c1ccccc1` (stereo not shown) [Compound 1057] returned a concentration for half-maximal inhibition (IC50) of 0.5 to 5 µM.
As for `O=C(Nc1cc2ccccc2cn1)C1C(c2ccc(Cl)c(Cl)c2)OC2(C(=O)c3ccccc3C2=O)C1C(=O)O` (stereo not shown) [Compound 1040], the figure is 0.5 to 5 µM; as for `O=C(NN1CCOCC1)C1C(c2ccc(Br)c(Br)c2)OC2(C(=O)c3ccccc3C2=O)C1C(=O)O` (racemic) [Compound 1075], 0.5 to 5 µM.
For `Cc1ccc(NC(=O)C2C(c3ccc(F)c(F)c3)OC3(C(=O)c4ccccc4C3=O)C2C(=O)O)cc1` (stereo not shown) [Compound 1132] the value was 5 to 50 µM; for `O=C(Nc1ccc(OC(F)(F)F)cc1)C1C(c2ccc(F)c(Cl)c2)OC2(C(=O)c3ccccc3C2=O)C1C(=O)O` (stereo not shown) [Compound 1131], 0.5 to 5 µM.
As for `COc1ccccc1NC(=O)C1C(c2ccc(Cl)c(Cl)c2)OC2(C(=O)c3ccccc3C2=O)C1C(=O)O` (stereo not shown) [Compound 1124], the figure is 0.5 to 5 µM; as for `CC(C)(C)c1ccc(NC(=O)C2C(c3ccc(Cl)c(Cl)c3)OC3(C(=O)c4ccccc4C3=O)C2C(=O)O)cc1` (stereo not shown) [Compound 1025], 0.5 to 5 µM; as for `O=C(Nc1ccc2c(c1)OCO2)C1C(c2cccc(C(F)(F)F)c2)OC2(C(=O)c3ccccc3C2=O)C1C(=O)O` (stereo not shown) [Compound 1031], 0.5 to 5 µM.
For `O=C(Nc1cc(F)cc(F)c1)C1C(c2ccc(F)c(Cl)c2)OC2(C(=O)c3ccccc3C2=O)C1C(=O)O` (stereo not shown) [Compound 1120], the half-maximal inhibitory concentration (IC50) lay within 0.5 to 5 µM.
For `CS(=O)(=O)c1ccc(NC(=O)C2C(c3ccc(Br)c(Br)c3)OC3(C(=O)c4ccccc4C3=O)C2C(=O)O)cc1` (stereo not shown) [Compound 1086] the value was less than 0.5 µM; for `O=C(Nc1ccc2c(c1)OCO2)C1C(c2ccc(Cl)c(Cl)c2)OC2(C(=O)c3ccccc3C2=O)C1C(=O)O` (stereo not shown) [Compound 1002], less than 0.5 µM; for `Cc1ccc2nc(-c3ccc(NC(=O)C4C(c5ccc(Cl)c(Cl)c5)OC5(C(=O)c6ccccc6C5=O)C4C(=O)O)cc3)sc2c1` (stereo not shown) [Compound 1028], less than 0.5 µM.
Regarding `CC(=O)c1ccc(NC(=O)C2C(C(Br)=Cc3ccccc3)OC3(C(=O)c4ccccc4C3=O)C2C(=O)O)cc1` (racemic) [Compound 4012], the concentration for half-maximal inhibition (IC50) fell in the range of 5 to 50 µM.
For `Cc1ccc2c(c1)C(=O)C1(OC(c3ccc(Cl)c(Cl)c3)C(C(=O)Nc3ccc4c(c3)OCO4)C1C(=O)O)C2=O` (single isomer, unassigned) [Compound A1003] the value was 5 to 50 µM; for `O=C(NC1Cc2ccccc2C1)C1C(c2ccc(Br)c(Br)c2)OC2(C(=O)c3ccccc3C2=O)C1C(=O)O` (stereo not shown) [Compound 1113], less than 0.5 µM.
Consider `O=C1C2C(c3ccc(Cl)cc3)OC3(C(=O)c4ccccc4C3=O)C2C(=O)N1c1cccc(C(F)(F)F)c1` (stereo not shown) [Compound 2011], for which the half-maximal inhibitory concentration (IC50) lay within 5 to 50 µM.
In turn, `O=C(NCc1ccccc1)C1C(c2ccc(Cl)cc2)OC23C(=O)c4ccccc4C2(O)OC(=O)C13` (racemic) [Compound 3003] had a half-maximal inhibitory concentration (IC50) of 5 to 50 µM.
For `CC(=O)c1ccc(NC(=O)C2C(c3ccc(Cl)c(Cl)c3)OC3(C(=O)c4ccc(Cl)cc4C3=O)C2C(=O)O)cc1` (stereo not shown) [Compound 1116] the value was 5 to 50 µM; for `O=C1C2C(c3ccc(Cl)c(Cl)c3)OC3(C(=O)c4ccccc4C3=O)C2C(=O)N1c1ccc(O)cc1` (stereo not shown) [Compound 2021], less than 0.5 µM; for `CC(=O)c1ccc(NC(=O)C2C(c3ccc(C)c(C)c3)OC3(C(=O)c4ccccc4C3=O)C2C(=O)O)cc1` (stereo not shown) [Compound 1056], 0.5 to 5 µM.
`O=C1C2C(c3ccc(C(F)(F)F)cc3)OC3(C(=O)c4ccccc4C3=O)C2C(=O)N1c1ccc2c(c1)OCO2` (stereo not shown) [Compound 2008] displayed an IC50 of 5 to 50 µM.
`O=C(Nc1ccc(Br)c(Cl)c1)C1C(c2ccc(Br)c(Br)c2)OC2(C(=O)c3ccccc3C2=O)C1C(=O)O` (racemic) [Compound 1102] came in with an IC50 of 0.5 to 5 µM.
Regarding `COc1ccc(NC(=O)C2C(c3ccc(Cl)cc3)OC3(C(=O)c4ccccc4C3=O)C2C(=O)O)cc1OC` (stereo not shown) [Compound 1004], the half-maximal inhibitory concentration (IC50) fell in the range of 5 to 50 µM.
As for `Cc1ccc2c(c1)C1(O)OC(=O)C3C(C(=O)Nc4ccc(N5CCOCC5)cc4)C(c4ccc(Br)c(Br)c4)OC31C2=O` (single isomer, unassigned) [Compound B1003], the figure is less than 0.5 µM; as for `O=C(Nc1ccc(F)c(F)c1)C1C(c2ccc(Br)c(Br)c2)OC2(C(=O)c3ccccc3C2=O)C1C(=O)O` (stereo not shown) [Compound 1105], 0.5 to 5 µM.
`COc1ccc(N2C(=O)C3C(c4ccc(Cl)cc4)OC4(C(=O)c5ccccc5C4=O)C3C2=O)cc1OC` (stereo not shown) [Compound 2002] displayed an IC50 of 5 to 50 µM.
As for `CC(=O)c1ccc(NC(=O)C2C(C=Cc3ccccc3Br)OC3(C(=O)c4ccccc4C3=O)C2C(=O)O)cc1` (stereo not shown) [Compound 4007], the figure is 0.5 to 5 µM; as for `O=C(Nc1ccc(N2CCOCC2)cc1)C1C(c2ccc(Br)c(Br)c2)OC2(C(=O)c3ccc(F)cc3C2=O)C1C(=O)O` (stereo not shown) [Compound 1143], less than 0.5 µM; as for `O=C(NC1CC1c1ccccc1)C1C(c2ccc(Br)c(Br)c2)OC2(C(=O)c3ccccc3C2=O)C1C(=O)O` (single isomer, unassigned) [Compound 1088], 0.5 to 5 µM.
For `CC(C)(C)OC(=O)Nc1ccc(N2C(=O)C3C(c4ccc(Cl)c(Cl)c4)OC4(C(=O)c5ccccc5C4=O)C3C2=O)cc1` (stereo not shown) [Compound 2018] the value was 5 to 50 µM.
For `CC(C)(C)c1ccc(NC(=O)C2C(c3ccc(Cl)c(Cl)c3)OC3(C(=O)c4ccccc4C3=O)C2C(=O)O)cc1` (stereo not shown) [Compound 1060], the IC50 was in the range of 0.5 to 5 µM.
As for `O=C(Nc1ccc(OC(F)(F)F)cc1)C1C(c2ccc(Cl)c(Cl)c2)OC2(C(=O)c3ccccc3C2=O)C1C(=O)O` (stereo not shown) [Compound 1112], the figure is 0.5 to 5 µM; as for `Cc1cc2c(cc1F)C(=O)C13OC(c4ccc(Br)c(Br)c4)C(C(=O)Nc4ccc(N5CCOCC5)cc4)C1C(=O)OC23O` (single isomer, unassigned) [Compound B1008], less than 0.5 µM; as for `CC(=O)c1ccc(NC(=O)C2C(C=Cc3cccc(Cl)c3Cl)OC3(C(=O)c4ccccc4C3=O)C2C(=O)O)cc1` (stereo not shown) [Compound 4010], 0.5 to 5 µM.
Take `COC(=O)C1C(C(=O)Nc2ccc3c(c2)OCO3)C(c2ccc(Cl)c(Cl)c2)OC12C(=O)c1ccccc1C2=O` (racemic) [Compound 1022]: the IC50 is 0.5 to 5 µM.

The values are drawn from EP1345943B1, “INHIBITORS OF PAPILLOMA VIRUS” (BOEHRINGER INGELHEIM (CANADA) LTD., priority 2000, dated 2002).
